Like-named read-outs stand apart in the source and are kept apart here.
Columns and labels:
9L gliosarcoma = tested on: 9L gliosarcoma
Excerpt: 88 rats were intracranially implanted on Day 0 with 9L gliosarcoma.

rodent 9L glioma = assay: Inhibition of tumor proliferation, 9L cells counted after 5 days; type: cell-based; conditions: 120 h, read-out: growth inhibition
Protocol: The 9L gliosarcoma cell line was obtained from Dr. M. Barker at the University of California at San Francisco Brain Tumor Research Center (San Francisco, Calif., USA). The cells were maintained in tissue culture in Dulbecco's minimum essential medium with 10% fetal bovine serum, streptomycin (80.5 units/ml), penicillin (base; 80.5 units/ml), and 1% L-glutamine (all products from GIBCO laboratories, Grand Island, N.Y., USA). Cells were maintained in a humidified atmosphere of 5% CO2 at 37° C. The cells were grown to confluence, detached with 0.25% trypsin in Dulbecco's phosphate-buffered saline, and resuspended in medium.
Inhibition of tumor proliferation was tested against the rodent 9L glioma. […] The data were analyzed using the two-tailed Student's t-test.

Which results are given for `CO[C@H]1C[C@@H]2CC[C@@H](C)[C@@](O)(O2)C(=O)C(=O)N2CCCC[C@H]2C(=O)O[C@H]([C@H](C)C[C@@H]2CC[C@@H](O)[C@H](OC)C2)CC(=O)[C@H](C)/C=C(\C)[C@@H](O)[C@@H](OC)C(=O)[C@H](C)C[C@H](C)/C=C/C=C/C=C/1C` [Rapamycin, rapamycin]?
toxicity (9L gliosarcoma; rat, in vivo, ip, 2 mg/kg): none of the rats that received systemic injections of rapamycin showed overt signs of toxicity; % Survival (9L gliosarcoma; treated Day 0, at Day 0): 100%; % Survival (9L gliosarcoma; treated Day 0, at Day 12, 1st line): 100%; % Survival (9L gliosarcoma; treated Day 0, at Day 12, 2nd line): 100%; % Survival (9L gliosarcoma; treated Day 0, at Day 13, 1st line): 100%; % Survival (9L gliosarcoma; treated Day 0, at Day 13, 2nd line): 100%; % Survival (9L gliosarcoma; treated Day 0, at Day 14, 1st line): 100%; % Survival (9L gliosarcoma; treated Day 0, at Day 14, 2nd line): 100%; % Survival (9L gliosarcoma; treated Day 0, at Day 15, 1st line): 100%; % Survival (9L gliosarcoma; treated Day 0, at Day 15, 2nd line): 100%; % Survival (9L gliosarcoma; treated Day 0, at Day 16, 1st line): 100%; % Survival (9L gliosarcoma; treated Day 0, at Day 16, 2nd line): 100%; % Survival (9L gliosarcoma; treated Day 0, at Day 17, 1st line): 100%; % Survival (9L gliosarcoma; treated Day 0, at Day 17, 2nd line): 100%; % Survival (9L gliosarcoma; treated Day 0, at Day 18, 1st line): 100%; % Survival (9L gliosarcoma; treated Day 0, at Day 18, 2nd line): 100%; % Survival (9L gliosarcoma; treated Day 0, at Day 19, 1st line): 100%; % Survival (9L gliosarcoma; treated Day 0, at Day 19, 2nd line): 100%; % Survival (9L gliosarcoma; treated Day 0, at Day 20, 1st line): 100%; % Survival (9L gliosarcoma; treated Day 0, at Day 20, 2nd line): 100%; % Survival (9L gliosarcoma; treated Day 0, at Day 21, 1st line): 100%; % Survival (9L gliosarcoma; treated Day 0, at Day 21, 2nd line): 100%; % Survival (9L gliosarcoma; treated Day 0, at Day 22, 1st line): 100%; % Survival (9L gliosarcoma; treated Day 0, at Day 22, 2nd line): 100%; % Survival (9L gliosarcoma; treated Day 0, at Day 23, 1st line): 100%; % Survival (9L gliosarcoma; treated Day 0, at Day 23, 2nd line): 100%; % Survival (9L gliosarcoma; treated Day 0, at Day 24, 1st line): 100%; % Survival (9L gliosarcoma; treated Day 0, at Day 24, 2nd line): 100%; % Survival (9L gliosarcoma; treated Day 0, at Day 25, 1st line): 100%; % Survival (9L gliosarcoma; treated Day 0, at Day 25, 2nd line): 75%; % Survival (9L gliosarcoma; treated Day 0, at Day 26, 1st line): 75%; % Survival (9L gliosarcoma; treated Day 0, at Day 26, 2nd line): 75%; % Survival (9L gliosarcoma; treated Day 0, at Day 27, 1st line): 75%; % Survival (9L gliosarcoma; treated Day 0, at Day 27, 2nd line): 75%; % Survival (9L gliosarcoma; treated Day 0, at Day 28, 1st line): 75%; % Survival (9L gliosarcoma; treated Day 0, at Day 28, 2nd line): 50%; % Survival (9L gliosarcoma; treated Day 0, at Day 29, 1st line): 50%; % Survival (9L gliosarcoma; treated Day 0, at Day 29, 2nd line): 50%; % Survival (9L gliosarcoma; treated Day 0, at Day 30, 1st line): 50%; % Survival (9L gliosarcoma; treated Day 0, at Day 30, 2nd line): 37.5%; % Survival (9L gliosarcoma; treated Day 0, at Day 31, 1st line): 37.5%; % Survival (9L gliosarcoma; treated Day 0, at Day 31, 2nd line): 37.5%; % Survival (9L gliosarcoma; treated Day 0, at Day 32, 1st line): 37.5%; % Survival (9L gliosarcoma; treated Day 0, at Day 32, 2nd line): 37.5%; % Survival (9L gliosarcoma; treated Day 0, at Day 33, 1st line): 37.5%; % Survival (9L gliosarcoma; treated Day 0, at Day 33, 2nd line): 37.5%; % Survival (9L gliosarcoma; treated Day 0, at Day 35, 1st line): 37.5%; % Survival (9L gliosarcoma; treated Day 0, at Day 35, 2nd line): 25%; % Survival (9L gliosarcoma; treated Day 0, at Day 40, 1st line): 25%; % Survival (9L gliosarcoma; treated Day 0, at Day 41, 2nd line): 0%; % Survival (9L gliosarcoma; treated Day 5, at Day 0): 100%; % Survival (9L gliosarcoma; treated Day 5, at Day 12, 1st line): 100%; % Survival (9L gliosarcoma; treated Day 5, at Day 12, 2nd line): 100%; % Survival (9L gliosarcoma; treated Day 5, at Day 13, 1st line): 100%; % Survival (9L gliosarcoma; treated Day 5, at Day 13, 2nd line): 100%; % Survival (9L gliosarcoma; treated Day 5, at Day 14, 1st line): 100%; % Survival (9L gliosarcoma; treated Day 5, at Day 14, 2nd line): 100%; % Survival (9L gliosarcoma; treated Day 5, at Day 15, 1st line): 100%; % Survival (9L gliosarcoma; treated Day 5, at Day 15, 2nd line): 100%; % Survival (9L gliosarcoma; treated Day 5, at Day 16, 1st line): 100%; % Survival (9L gliosarcoma; treated Day 5, at Day 16, 2nd line): 100%; % Survival (9L gliosarcoma; treated Day 5, at Day 17, 1st line): 100%; % Survival (9L gliosarcoma; treated Day 5, at Day 17, 2nd line): 100%; % Survival (9L gliosarcoma; treated Day 5, at Day 18, 1st line): 100%; % Survival (9L gliosarcoma; treated Day 5, at Day 18, 2nd line): 100%; % Survival (9L gliosarcoma; treated Day 5, at Day 19, 1st line): 100%; % Survival (9L gliosarcoma; treated Day 5, at Day 19, 2nd line): 100%; % Survival (9L gliosarcoma; treated Day 5, at Day 20, 1st line): 100%; % Survival (9L gliosarcoma; treated Day 5, at Day 20, 2nd line): 100%; % Survival (9L gliosarcoma; treated Day 5, at Day 21, 1st line): 100%; % Survival (9L gliosarcoma; treated Day 5, at Day 21, 2nd line): 100%; % Survival (9L gliosarcoma; treated Day 5, at Day 22, 1st line): 100%; % Survival (9L gliosarcoma; treated Day 5, at Day 22, 2nd line): 100%; % Survival (9L gliosarcoma; treated Day 5, at Day 23, 1st line): 100%; % Survival (9L gliosarcoma; treated Day 5, at Day 23, 2nd line): 100%; % Survival (9L gliosarcoma; treated Day 5, at Day 24, 1st line): 100%; % Survival (9L gliosarcoma; treated Day 5, at Day 24, 2nd line): 100%; % Survival (9L gliosarcoma; treated Day 5, at Day 25, 1st line): 100%; % Survival (9L gliosarcoma; treated Day 5, at Day 26, 2nd line): 75%; % Survival (9L gliosarcoma; treated Day 5, at Day 27, 1st line): 75%; % Survival (9L gliosarcoma; treated Day 5, at Day 27, 2nd line): 62.5%; % Survival (9L gliosarcoma; treated Day 5, at Day 28, 1st line): 62.5%; % Survival (9L gliosarcoma; treated Day 5, at Day 28, 2nd line): 50%; % Survival (9L gliosarcoma; treated Day 5, at Day 29, 1st line): 50%; % Survival (9L gliosarcoma; treated Day 5, at Day 29, 2nd line): 50%; % Survival (9L gliosarcoma; treated Day 5, at Day 30, 1st line): 50%; % Survival (9L gliosarcoma; treated Day 5, at Day 30, 2nd line): 50%; % Survival (9L gliosarcoma; treated Day 5, at Day 31, 1st line): 50%; % Survival (9L gliosarcoma; treated Day 5, at Day 31, 2nd line): 50%; % Survival (9L gliosarcoma; treated Day 5, at Day 32, 1st line): 50%; % Survival (9L gliosarcoma; treated Day 5, at Day 32, 2nd line): 37.5%; % Survival (9L gliosarcoma; treated Day 5, at Day 33, 1st line): 37.5%; % Survival (9L gliosarcoma; treated Day 5, at Day 33, 2nd line): 37.5%; % Survival (9L gliosarcoma; treated Day 5, at Day 35, 1st line): 37.5%; % Survival (9L gliosarcoma; treated Day 5, at Day 35, 2nd line): 37.5%; % Survival (9L gliosarcoma; treated Day 5, at Day 40, 1st line): 37.5%; % Survival (9L gliosarcoma; treated Day 5, at Day 40, 2nd line): 37.5%; % Survival (9L gliosarcoma; treated Day 5, at Day 41, 1st line): 37.5%; % Survival (9L gliosarcoma; treated Day 5, at Day 41, 2nd line): 0%; Statistical Significance (survival) vs Day 0-0.2% (9L gliosarcoma; treatment Day 0): 0.4226; Statistical Significance (survival) vs Day 0-2.2% (9L gliosarcoma; treatment Day 0): 0.2237; Statistical Significance (survival) vs Day 0-28% (9L gliosarcoma; treatment Day 0): 0.7869; Statistical Significance (survival) vs Day 0-Placebo (9L gliosarcoma; treatment Day 0): 0.0001; Statistical Significance (survival) vs Day 5-0.2% (9L gliosarcoma; treatment Day 0): 0.0002; Statistical Significance (survival) vs Day 5-2.2% (9L gliosarcoma; treatment Day 0): 0.0008; Statistical Significance (survival) vs Day 5-Placebo (9L gliosarcoma; treatment Day 0): 0.0001; Statistical Significance (survival) vs Day 5-Systemic (9L gliosarcoma; treatment Day 0): 0.5157; Statistical Significance (survival) vs Day 0-0.2% (9L gliosarcoma; treatment Day 5): 0.2137; Statistical Significance (survival) vs Day 0-28% (9L gliosarcoma; treatment Day 5): 0.9992; Statistical Significance (survival) vs Day 0-Placebo (9L gliosarcoma; treatment Day 5): 0.0001; Statistical Significance (survival) vs Day 0-Systemic (9L gliosarcoma; treatment Day 5): 0.5157; Statistical Significance (survival) vs Day 5-0.2% (9L gliosarcoma; treatment Day 5): 0.0001; Statistical Significance (survival) vs Day 5-2.2% (9L gliosarcoma; treatment Day 5): 0.003; Statistical Significance (survival) vs Day 5-28% (9L gliosarcoma; treatment Day 5): 0.222; Statistical Significance (survival) vs Day 5-Placebo (9L gliosarcoma; treatment Day 5): 0.0001; Mean Survival (9L gliosarcoma; treatment initiated 5 days after tumor implantation): 29 days; Mean Survival (9L gliosarcoma; treatment initiated concurrently with tumor implantation (Day 0)): 28 days; inhibition at 0.01 µg/mL (rodent 9L glioma; 0.01 microgram/ml): 34%; inhibition at 10 µg/mL (rodent 9L glioma; 10 microgram/ml): 62%

Source: patent publication US20090274764A1, “Hollow Foam Beads for Treatment of Glioblastoma” (priority 2008, published 2009)
